Several values for one entry are separate records, joined by “and”; a condition that tells them apart may be missing. Equal entries are not always repeated. Inconclusive results and toxic doses are left out. No stated cut-off is given here; in the data, active means T/C of 150% or more; inactive means T/C below 125%.
Test system: L1210 leukemia ip in BDF1 mice, survival T/C
Assay: NCI In Vivo Anticancer Drug Screen. Data for tumor model L1210 Leukemia (intraperitoneal) in B6D2F1 (BDF1) mice
Details: endpoint: mean survival time, higher = longer survival
Method in brief: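 Survival endpoint. Drug-treated group vs vehicle group, expressed as T divided by C. Tumor passaged by transplantation.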

[1] = dose: 100.0 mg/kg/injection, schedule: Q01DX009 (ip), vehicle: Klucel (hydroxypropylcellulose) (HPC)
[2] = dose: 100.0 mg/kg/injection, schedule: Q04DX003 (ip), vehicle: Klucel (hydroxypropylcellulose) (HPC)
[3] = dose: 200.0 mg/kg/injection, schedule: Q04DX003 (ip), vehicle: Klucel (hydroxypropylcellulose) (HPC)
[4] = dose: 50.0 mg/kg/injection, schedule: Q01DX001 (ip), vehicle: carboxymethylcellulose (CMC)
[5] = dose: 100.0 mg/kg/injection, schedule: Q01DX001 (ip), vehicle: carboxymethylcellulose (CMC)
[6] = dose: 200.0 mg/kg/injection, schedule: Q01DX001 (ip), vehicle: carboxymethylcellulose (CMC)
[7] = dose: 400.0 mg/kg/injection, schedule: Q01DX001 (ip), vehicle: carboxymethylcellulose (CMC)
[8] = dose: 100.0 mg/kg/injection, schedule: Q04DX003 (ip), vehicle: saline with Tween-80
[9] = dose: 200.0 mg/kg/injection, schedule: Q04DX003 (ip), vehicle: saline with Tween-80
[10] = dose: 400.0 mg/kg/injection, schedule: Q04DX003 (ip), vehicle: saline with Tween-80
[11] = dose: 100.0 mg/kg/injection, schedule: Q04DX002 (ip), vehicle: Klucel (hydroxypropylcellulose) (HPC)
[12] = dose: 200.0 mg/kg/injection, schedule: Q04DX002 (ip), vehicle: Klucel (hydroxypropylcellulose) (HPC)
[13] = dose: 400.0 mg/kg/injection, schedule: Q04DX002 (ip), vehicle: Klucel (hydroxypropylcellulose) (HPC)
[14] = dose: 200.0 mg/kg/injection, schedule: Q01DX009 (ip), vehicle: Klucel (hydroxypropylcellulose) (HPC)
[15] = dose: 400.0 mg/kg/injection, schedule: Q01DX009 (ip), vehicle: Klucel (hydroxypropylcellulose) (HPC)
[16] = dose: 100.0 mg/kg/injection, schedule: Q01DX009 (ip), vehicle: saline
[17] = dose: 100.0 mg/kg/injection, schedule: Q04DX003 (ip), vehicle: saline
[18] = dose: 200.0 mg/kg/injection, schedule: Q04DX003 (ip), vehicle: saline
[19] = dose: 400.0 mg/kg/injection, schedule: Q01DX009 (ip), vehicle: saline
[20] = dose: 400.0 mg/kg/injection, schedule: Q04DX003 (ip), vehicle: saline

Measured: T/C

CN1C(=O)N(Br)C(C)(C)C1=O
inactive: dose: 50.0 mg/kg/injection, schedule: Q01DX009 (ip), vehicle: Klucel (hydroxypropylcellulose) (HPC) 95 % of control | dose: 50.0 mg/kg/injection, schedule: Q04DX003 (ip), vehicle: Klucel (hydroxypropylcellulose) (HPC) 106 % of control | dose: 100.0 mg/kg/injection, schedule: Q01DX001 (ip), vehicle: Klucel (hydroxypropylcellulose) (HPC) 92 % of control | [1] 98 % of control | [2] 100 % of control | dose: 200.0 mg/kg/injection, schedule: Q01DX001 (ip), vehicle: Klucel (hydroxypropylcellulose) (HPC) 102 % of control | [3] 97 % of control

O=C(O)CN(CCCCN(CC(=O)O)CC(=O)O)CC(=O)O
inactive: dose: 100.0 mg/kg/injection, schedule: Q01DX001 (ip), vehicle: other 111 % of control | dose: 200.0 mg/kg/injection, schedule: Q01DX001 (ip), vehicle: other 117 % of control | dose: 400.0 mg/kg/injection, schedule: Q01DX001 (ip), vehicle: other 96 % of control

CN(C)c1ccc(C=Nc2ccc(/C=C3\C=Cc4ccccc43)cc2)cc1
inactive: [4] 91 % of control | [5] 93 % of control | [6] 96 % of control | [7] 96 % of control

Nc1nnnn1-c1cccc(Cl)c1
inactive: [8] 96 % of control | [9] 96 % of control | [10] 94 % of control

CCn1c2ccccc2c2cc(/C=C\[N+](=O)[O-])ccc21
inactive: [11] 91 % of control | [12] 94 % of control | [13] 97 % of control

Cc1ccc(S(=O)(=O)N(CCCc2c(C)nc(N)[nH]c2=O)Cc2ccc(N)cc2)cc1
inactive: [11] 91 % of control | [12] 88 % of control | [13] 112 % of control

BrC1C2CC3C(C2)C13 (configuration not stated)
inactive: [1] 104 % of control | [2] 100 % of control | [14] 95 % of control | [3] 95 % of control | [15] 98 % of control | dose: 400.0 mg/kg/injection, schedule: Q04DX003 (ip), vehicle: Klucel (hydroxypropylcellulose) (HPC) 93 % of control

CCCCCCCCCCCCN=C(N)C(N)=NCCCCCCCCCCCC
inactive: dose: 100.0 mg/kg/injection, schedule: Q04DX002 (ip), vehicle: other 108 % of control | dose: 200.0 mg/kg/injection, schedule: Q04DX002 (ip), vehicle: other 96 % of control | dose: 400.0 mg/kg/injection, schedule: Q04DX002 (ip), vehicle: other 87 % of control

CCN1C(=O)CC2(CCN(C)CC2)C1=O
inactive: dose: 0.78 mg/kg/injection, schedule: Q01DX009 (ip), vehicle: saline 98 % of control | dose: 1.56 mg/kg/injection, schedule: Q01DX009 (ip), vehicle: saline 102 % of control | dose: 3.12 mg/kg/injection, schedule: Q01DX009 (ip), vehicle: saline 95 % of control | dose: 6.25 mg/kg/injection, schedule: Q01DX009 (ip), vehicle: saline 117 % of control | dose: 12.5 mg/kg/injection, schedule: Q01DX009 (ip), vehicle: saline 117 % of control | dose: 25.0 mg/kg/injection, schedule: Q01DX009 (ip), vehicle: saline 98 % of control | dose: 25.0 mg/kg/injection, schedule: Q04DX003 (ip), vehicle: saline 113 % of control | dose: 50.0 mg/kg/injection, schedule: Q01DX009 (ip), vehicle: saline 104 % of control and 113 % of control | dose: 50.0 mg/kg/injection, schedule: Q04DX003 (ip), vehicle: saline 115 % of control | [16] 93 % of control and 100 % of control | [17] 105 % of control | [18] 112 % of control | [19] 93 % of control | [20] 109 % of control

Nc1ccnc2snnc12
inactive: dose: 50.0 mg/kg/injection, schedule: Q01DX009 (ip), vehicle: saline with Tween-80 96 % of control | dose: 50.0 mg/kg/injection, schedule: Q04DX003 (ip), vehicle: saline with Tween-80 93 % of control | dose: 100.0 mg/kg/injection, schedule: Q01DX001 (ip), vehicle: saline with Tween-80 111 % of control | dose: 100.0 mg/kg/injection, schedule: Q01DX009 (ip), vehicle: saline with Tween-80 90 % of control | [8] 102 % of control | dose: 200.0 mg/kg/injection, schedule: Q01DX001 (ip), vehicle: saline with Tween-80 98 % of control | dose: 200.0 mg/kg/injection, schedule: Q01DX009 (ip), vehicle: saline with Tween-80 95 % of control | [9] 107 % of control

N#CC/C(C#N)=C/OC(=O)c1ccc(Cl)cc1
inactive: [1] 118 % of control | [14] 124 % of control | [15] 115 % of control

O=C(COc1cc(Cl)c(Cl)cc1Cl)Nc1cccc2c1C(=O)c1ccccc1C2=O
inactive: dose: 75.0 mg/kg/injection, schedule: Q04DX002 (ip), vehicle: Klucel (hydroxypropylcellulose) (HPC) 98 % of control | dose: 150.0 mg/kg/injection, schedule: Q04DX002 (ip), vehicle: Klucel (hydroxypropylcellulose) (HPC) 103 % of control | dose: 300.0 mg/kg/injection, schedule: Q04DX002 (ip), vehicle: Klucel (hydroxypropylcellulose) (HPC) 103 % of control

O=C1OCC/C1=C/OCCO/C=C1\CCOC1=O
inactive: [11] 94 % of control | [12] 90 % of control

CN1CCC(CNC(=O)c2ccccc2)c2ccccc21 (configuration not stated)
inactive: [4] 100 % of control | [5] 96 % of control | [6] 92 % of control | [7] 102 % of control

Brc1ccc(N2N=NC3CNCC32)cc1 (configuration not stated)
inactive: [8] 92 % of control | [9] 105 % of control | [10] 94 % of control

CN(C)c1nc(N)nc(Nc2ccc(Br)cc2)c1N=O
inactive: [4] 109 % of control | [5] 95 % of control | dose: 100.0 mg/kg/injection, schedule: Q01DX001 (ip), vehicle: saline 105 % of control | [16] 107 % of control | [17] 107 % of control | [6] 103 % of control | dose: 200.0 mg/kg/injection, schedule: Q01DX001 (ip), vehicle: saline 116 % of control | dose: 200.0 mg/kg/injection, schedule: Q01DX009 (ip), vehicle: saline 119 % of control | [18] 98 % of control | [7] 95 % of control | dose: 400.0 mg/kg/injection, schedule: Q01DX001 (ip), vehicle: saline 116 % of control | [19] 109 % of control | [20] 96 % of control

OCC1OC(n2cnc3nccnc32)C(O)C1O (configuration not stated)
inactive: dose: 100.0 mg/kg/injection, schedule: Q01DX005 (ip), vehicle: saline 98 % of control | dose: 200.0 mg/kg/injection, schedule: Q01DX005 (ip), vehicle: saline 110 % of control

COc1cc(C=Nc2ccc(C)c(C)c2)ccc1OC(=O)c1ccccc1
inactive: dose: 100.0 mg/kg/injection, schedule: Q04DX002 (ip), vehicle: saline with Tween-80 106 % of control | dose: 200.0 mg/kg/injection, schedule: Q04DX002 (ip), vehicle: saline with Tween-80 106 % of control | dose: 400.0 mg/kg/injection, schedule: Q04DX002 (ip), vehicle: saline with Tween-80 95 % of control

Reference: PubChem BioAssay AID248 (DTP/NCI, 2004)
